Reference: patent US20090156629A1, “INDENOISOQUINOLINE-RELEASABLE POLYMER CONJUGATES” (Enzon Pharmaceuticals, Inc., priority 2006, published 2009)

Legend:
[1] = test system: standard panel of 12 tumor cell lines (NCI-H23, NCI-H522, MDA-MB-231, MDA-MB-435, SW-620, COLO 205, LOX, UACC-62, OVCAR-3, OVCAR-5, U251 and SF-295); experiment: In vivo hollow fiber assay (HFA); set-up: species or system mice; settings: out of 48; NSC 706744 at 100 and 150 mg/kg; conjugates at 12 and 18 (20k) or 9 and 12 (40k) mg/kg/dose IndQ equivalent
Protocol: A standard panel of 12 tumor cell lines is used for routine hollow fiber screening. These include NCI-H23, NCI-H522, MDA-MB-231, MDA-MB-435, SW-620, COLO 205, LOX, UACC-62, OVCAR-3, OVCAR-5, U251 and SF-295. A total of 3 different tumor lines are prepared for each experiment so that each mouse receives 3 intraperitoneal implants (1 of each tumor line) and 3 subcutaneous implants (1 of each tumor line). Each compound tested is administered by intraperitoneal injection at 2 dose levels. The percent net growth for each cell line in each treatment group is calculated and compared to the percent net growth in the vehicle treated controls. A 50% or greater reduction in percent net growth in the treated samples compared to the vehicle control samples is considered a positive result. […] A compound is considered for xenograft testing if it has a combined ip+sc score of 20 or greater, a sc score of 8 or greater, or produces cell death of any cell line at either dose level evaluated.
The in vivo hollow fiber assay (HFA) in mice was conducted per previously published methods using the 20 k ΔPEG-RNL9-IndQ at equivalent IndQ active doses of 12 and 18 mg/kg/dose and 40 k ΔPEG-RNL9-IndQ at equivalent IndQ active doses of 9 and 12 mg/kg/dose. For comparison, NSC 706744 (native or unmodified) was evaluated at doses of 100 and 150 mg/kg/dose which are the highest doses routinely tested.

[2] = test system: standard panel of 12 tumor cell lines (NCI-H23, NCI-H522, MDA-MB-231, MDA-MB-435, SW-620, COLO 205, LOX, UACC-62, OVCAR-3, OVCAR-5, U251 and SF-295); settings: historic data for comparison; cited from earlier work

Compound	score in IP fibers [1]	score in SC fibers [1]	Activity [2]	Cell Death [2]	IP + SC score [2]	IP score [2]	SC score [2]
COc1cc2c3c(n(CCCNCCO)c(=O)c2cc1OC)-c1cc2c(cc1C3=O)OCO2 [NSC 706744]	6/48	6/48					
CC(=O)O[C@H]1C(=O)[C@@]2(C)[C@H]([C@H](OC(=O)c3ccccc3)[C@]3(O)C[C@H](OC(=O)[C@H](O)[C@@H](NC(=O)c4ccccc4)c4ccccc4)C(C)=C1C3(C)C)[C@]1(OC(C)=O)CO[C@@H]1C[C@@H]2O [Taxol]			Active	Yes	42	36	6
